Test results published in patent US20110071094A1, “(D)-ALLOSE INDUCING PROGRAMMED CELL DEATH IN HORMONE REFRACTORY PROSTATE CANCER LINES” (INDUSTRY-ACADEMIC COOPERATION FOUDATION, GYEONGSANG …, priority 2008, published 2011).

Experiments:
Assay type in all cases: cell-based, human
DU145 cell line [1] = test: Apoptotic indices by DAPI staining, confocal microscopy; conditions: DU145, 24, 48 and 72 h
Protocol: (§1) The Annexin-V-FLUOS Staining Kit (Roche Diagnostics GmbH, Mannheim, Germany) was used for the detection and quantification of the apoptotic cells. This kit uses a dual-staining protocol in which the apoptotic cells are stained with annexin-V (green fluorescence) and the necrotic cells are stained with propidium iodide (PI, red fluorescence). Briefly, DU145 cell line was grown at a density of 1×10^6 cells in triplicate culture plates and then treated with D-allose (0, 20 and 40 mM) for 48 and 72 h. The cells were treated with trypsin and harvested with PBS and processed for labeling with annexin-V and PI by the use of the kit according to the manufacturer's protocol. The fluorescence was measured by flow cytometric analysis, performed on a FACSCalibur (Becton Dickinson, San Jose, Calif., USA) using 488 nm excitation and a 515 nm band pass filter for fluorescein detection and a filter [600 nm for PI detection (FL1: Annexin-V-FLUOS; FL2: PI). Further, apoptotic indices were measured by analysis of fragmented or scattered nuclei and condensed chromosome as the stringent morphological criteria of apoptosis, detectable by confocal microscopy on cells stained with DNA-intercalating dye […] (DAPI). For this purpose, DU145 and PrEC cell lines were exposed to 0, 20 and 40 mM of D-allose for up to 72 h, stained with DAPI (1 μg/ml in methanol), mounted with Prolong Antifade reagent (Molecular Probes, Eugene, Oreg., USA), and images were acquired by use of a confocal laser scanning microscope (Fluoview FV 1000, Olympus, Japan). The numbers of apoptotic nuclei per 100 cells were counted from the five high power fields/slide and apoptotic indices were expressed as a percentage of the untreated controls in each cell line, considering the value as 100%. DU145 cell line was also treated with 0-40 mM of D-glucose for determination of apoptotic indices as mentioned above.

PrEC cell line = test: as above; conditions: PrEC, 24, 48 and 72 h
Protocol: as §1

DU145 cell line [2] = test: Quantification of apoptosis by annexin-V/PI flow cytometry
Protocol: as §1

Bcl-2 = test: Western blot analysis of Bcl-2 protein in DU145; conditions: DU145, 20 and 40 mM, 72 h
Protocol: After 0, 20 and 40 mM of D-allose treatments for 72 h, DU145 cell line (1×10^6 cells in triplicate culture plates) was harvested into cell lysis buffer (Cell Signaling, Danvers, Mass., USA) supplemented with 1 mM PMSF. The cells were then sonicated, centrifuged and protein concentration was measured by Bradford assay with the Bio-Rad protein assay solution using bovine serum albumin (BSA) as standard. Proteins (30 μg) were separated on a 12.5% SDS-PAGE under reducing conditions and transferred onto a PVDF membrane (Santa Cruz Biotechnology, Santa Cruz, Calif., USA). Prestained protein marker, broad range: 6-175 kDa (New England Biolabs Inc., Ipswich, Mass., USA) run in parallel for detection of the molecular weights of the proteins. Membrane was blocked with 5% (w/v) skimmed milk in order to reduce non-specific binding and immunoblotting was performed using rabbit derived anti-Bcl-2, anti-Bax, anti-Caspase 3 and anti-PARP antibodies (1:500; Santa Cruz Biotechnology, Santa Cruz, Calif., USA). […] Membrane was probed with a goat derived horseradish peroxidase-conjugated anti-rabbit IgG (1:1000; Santa Cruz Biotechnology, Santa Cruz, Calif., USA), and proteins were detected by the enhanced chemiluminescence (ECL) detection system according to the vendor's protocol (Amersham Biosciences, Piscataway, N.J., USA) followed by X-ray exposure. […]

Bax mRNA = test: RT-PCR of Bax mRNA in DU145; conditions: DU145, 72 h, 0, 20 and 40 mM; relative to reduced Bcl-2 mRNA
Protocol: To identify the relative levels of expression of Bcl-2, Bax and Caspase 3 mRNAs after 0, 20 and 40 mM of D-allose treatments for 72 h, RT-PCR was performed. DU145 cell line (1×10^6 cells in triplicate culture plates) was harvested as mentioned above and total RNA was extracted using TRIzol reagent (Invitrogen, Carlsbad, Calif., USA) following a standard laboratory protocol. The RNA purity and concentrations were determined. Then 2 μg of total RNA was reversely transcribed to single-stranded cDNA using Oligo(dT)12-18 primer (Invitrogen, Carlsbad, Calif., USA) with M-MLV reverse transcriptase (Promega, Madison, Wis., USA). For PCR reaction, 4 μl of cDNA was reacted with 20 pmol each of the forward and reverse primers (Bioneer Corporation, Seoul, South Korea), and GoTaq® Green Master Mix […] containing PCR buffer, 25 mM magnesium chloride, 10 mM dNTP mix and Taq enzyme (Promega, Madison, Wis., USA), and amplified. […] The molecular sizes of the amplified products were determined by comparison with the molecular weight marker (100 by DNAladder; Promega, Madison, Wis., USA) run parallel with the PCR products. The densities of mRNA bands were analyzed by Molecular Analyst™, version 1.4.1 (Bio-Rad, Hercules, Calif., USA).

Question: `O=C[C@H](O)[C@H](O)[C@H](O)[C@H](O)CO` [D-allose] was tested. Which “programmed cell death (apoptotic indices, DAPI staining)” value (DU145 cell line [1]) did it give?
Answer: significant dose- and time-dependent programmed cell death

Question: What about the “programmed cell death (apoptotic indices, DAPI staining)” value (PrEC cell line) of the same compound?
Answer: very negligible effect

Question: What about the “apoptotic cells (annexin-V/PI)” value (DU145 cell line [2]; DU145, 20 mM, 48 h, untreated control 1.2%) of the same compound?
Answer: 5.1%

Question: What about the “apoptotic cells (annexin-V/PI)” value (DU145 cell line [2]; DU145, 20 mM, untreated control 2.3%) of the same compound?
Answer: 11.9%

Question: What about the “apoptotic cells (annexin-V/PI)” value (DU145 cell line [2]; DU145, 40 mM, 48 h, untreated control 1.2%) of the same compound?
Answer: 8.7%

Question: And the “apoptotic cells (annexin-V/PI)” value (DU145 cell line [2]; DU145, 40 mM, untreated control 2.3%)?
Answer: 23.5%

Question: What about the Bcl-2 protein expression (Bcl-2) of the same compound?
Answer: significantly decreased

Question: What about the “Bax mRNA expression” value (Bax mRNA) of the same compound?
Answer: opposite effect
